Laboratory results from PMC6001238, “Iterative Chemical Engineering of Vancomycin Leads to Novel Vancomycin Analogs With a High in Vitro Therapeutic Index” (Frontiers in Microbiology, 2018).
Converted amounts (≈) assume the structure as drawn.

How the values were obtained:
MRSA KS89 = assay: MIC, broth microdilution, MRSA KS89; assay type: cell-based, Staphylococcus aureus; details: for MIC-fold improvement vs. vancomycin: MRSA KS8, ratio of MIC of vancomycin and MIC of analogue; for MIC: Staphylococcus aureus MRSA KS8, read-out: MIC
Procedure, shortened: (§1)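 MIC values come from broth microdilution run to CLSI susceptibility-testing standards. Ultrapure water and uninoculated broth served as controls. In one series, vancomycin at a final 10 μM was co-dosed with the analogue or comparator antibiotic.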

E. faecalis VRE 53 = assay: MIC, broth microdilution, vancomycin-resistant E. faecalis VRE 53 (VanA); assay type: cell-based, Enterococcus faecalis; details: for MIC: Enterococcus faecalis VRE 53 (vancomycin-resistant), read-out: MIC; for MIC-fold improvement vs. vancomycin: VRE 53, ratio of MIC of vancomycin and MIC of analogue
Procedure, shortened: as §1

S. aureus VISA/HIP5827 = assay: MIC, broth microdilution, vancomycin-intermediate S. aureus VISA HIP5827; assay type: cell-based, Staphylococcus aureus; details: for MIC: Staphylococcus aureus VISA/HIP5827, read-out: MIC; for MIC-fold improvement vs. vancomycin: VISA/HIP5827, ratio of MIC of vancomycin and MIC of analogue
Procedure, shortened: as §1

[1] = system: S. aureus VSSA (ATCC 6538); assay: MIC, broth microdilution, vancomycin-sensitive S. aureus (VSSA/MSSA, ATCC 6538); assay type: cell-based, Staphylococcus aureus; details: for MIC: Staphylococcus aureus VSSA, read-out: MIC; for MIC-fold improvement vs. vancomycin: VSSA, ratio of MIC of vancomycin and MIC of analogue
Procedure, shortened: as §1

E. faecalis VSE 1 = assay: MIC, broth microdilution, vancomycin-sensitive E. faecalis (VSE 1); assay type: cell-based, Enterococcus faecalis; details: for MIC: Enterococcus faecalis VSE 1 (vancomycin-sensitive), read-out: MIC; for MIC-fold improvement vs. vancomycin: VSE 1, ratio of MIC of vancomycin and MIC of analogue
Procedure, shortened: as §1

MRSA KS1 = assay: MIC, broth microdilution, MRSA KS1; assay type: cell-based, Staphylococcus aureus; details: for MIC-fold improvement vs. vancomycin: MRSA KS1, ratio of MIC of vancomycin and MIC of analogue; for MIC: Staphylococcus aureus MRSA KS1, read-out: MIC
Procedure, shortened: as §1

MRSA KS2 = assay: MIC, broth microdilution, MRSA KS2; assay type: cell-based, Staphylococcus aureus; details: for MIC-fold improvement vs. vancomycin: MRSA KS2, ratio of MIC of vancomycin and MIC of analogue; for MIC: Staphylococcus aureus MRSA KS2, read-out: MIC
Procedure, shortened: as §1

[2] = system: human cervix carcinoma (HeLa) cells; assay: Cytostatic activity, HeLa cell proliferation; assay type: cell-based; details: mean ± SD of three experiments; highest concentration tested 250 µM; 4 days; read-out: Toxicity (IC50) HeLa
Procedure, shortened: (§2)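 Coulter counter cell counts after 37°C culture with compound; IC50 = concentration giving 50% growth inhibition vs negative control. Incubation: L1210 2 d, CEM 3 d, HeLa 4 d. Suspension density before mixing with an equal volume of dilution: 300,000–500,000 cells/mL.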

E. faecalis VRE 37 = assay: MIC, broth microdilution, vancomycin-resistant E. faecalis VRE 37 (VanA); assay type: cell-based, Enterococcus faecalis; details: for MIC: Enterococcus faecalis VRE 37 (vancomycin-resistant), read-out: MIC; for MIC-fold improvement vs. vancomycin: VRE 37, ratio of MIC of vancomycin and MIC of analogue
Procedure, shortened: as §1

E. faecalis VRE 6 = assay: MIC, broth microdilution, vancomycin-resistant E. faecalis VRE 6 (VanA); assay type: cell-based, Enterococcus faecalis; details: for MIC: Enterococcus faecalis VRE 6 (vancomycin-resistant), read-out: MIC; for MIC-fold improvement vs. vancomycin: VRE 6, ratio of MIC of vancomycin and MIC of analogue
Procedure, shortened: as §1

[3] = system: Murine leukemia (L1210) cells; assay: Cytostatic activity, L1210 cell proliferation; assay type: cell-based; details: mean ± SD of three experiments; highest concentration tested 250 µM; 2 days; read-out: Toxicity (IC50) L1210
Procedure, shortened: as §2

[4] = system: L1210, CEM and HeLa cell lines; assay: Cytostatic activity, average or summary over L1210, CEM and HeLa; assay type: cell-based; details: average of L1210, CEM and HeLa; read-out: Toxicity (IC50) Average
Procedure, shortened: as §2

S. aureus VRSA = assay: MIC, broth microdilution, vancomycin-resistant S. aureus (VRSA); assay type: cell-based, Staphylococcus aureus; details: for MIC: Staphylococcus aureus VRSA, read-out: MIC; for MIC-fold improvement vs. vancomycin: VRSA, ratio of MIC of vancomycin and MIC of analogue
Procedure, shortened: as §1

E. faecalis VRE 29 = assay: MIC, broth microdilution, vancomycin-resistant E. faecalis VRE 29 (VanA); assay type: cell-based, Enterococcus faecalis; details: for MIC: Enterococcus faecalis VRE 29 (vancomycin-resistant), read-out: MIC; for MIC-fold improvement vs. vancomycin: VRE 29, ratio of MIC of vancomycin and MIC of analogue
Procedure, shortened: as §1

[5] = system: human T-lymphocyte (CEM) cells; assay: Cytostatic activity, CEM cell proliferation; assay type: cell-based; details: mean ± SD of three experiments; highest concentration tested 250 µM; 3 days; read-out: Toxicity (IC50) CEM
Procedure, shortened: as §2

MRSA KS6 = assay: MIC, broth microdilution, MRSA KS6; assay type: cell-based, Staphylococcus aureus; details: for MIC-fold improvement vs. vancomycin: MRSA KS6, ratio of MIC of vancomycin and MIC of analogue; for MIC: Staphylococcus aureus MRSA KS6, read-out: MIC
Procedure, shortened: as §1

SMILES | MIC-fold improvement vs. vancomycin (MRSA KS89) | MIC (MRSA KS89) [µM] | MIC (E. faecalis VRE 53) [µM] | MIC-fold improvement vs. vancomycin (E. faecalis VRE 53) | MIC (S. aureus VISA/HIP5827) [µM] | MIC-fold improvement vs. vancomycin (S. aureus VISA/HIP5827) | MIC [1] [µM] | MIC-fold improvement vs. vancomycin [1] | MIC (E. faecalis VSE 1) [µM] | MIC-fold improvement vs. vancomycin (E. faecalis VSE 1) | MIC-fold improvement vs. vancomycin (MRSA KS1) | MIC (MRSA KS1) [µM] | MIC-fold improvement vs. vancomycin (MRSA KS2) | MIC (MRSA KS2) [µM] | IC50 [2] [µM] | MIC (E. faecalis VRE 37) [µM] | MIC-fold improvement vs. vancomycin (E. faecalis VRE 37) | MIC (E. faecalis VRE 6) [µM] | MIC-fold improvement vs. vancomycin (E. faecalis VRE 6) | IC50 [3] [µM] | other results
CCOc1ccc(-c2ccc(NC(=O)CNC(=O)C3NC(=O)C4NC(=O)C(NC(=O)C5NC(=O)C(CC(N)=O)NC(=O)C(NC(=O)C(CC(C)C)NC)C(O)c6ccc(c(Cl)c6)Oc6cc5cc(c6OC5OC(CO)C(O)C(O)C5OC5CC(C)(N)C(O)C(C)O5)Oc5ccc(cc5Cl)C4O)c4ccc(O)c(c4)-c4c(O)cc(O)cc43)cc2)cc1 (centres unmarked) [Vanc-86] | 2 | 0.39 (≈ 0.664 µg/mL) | 12.5 (≈ 21.3 µg/mL) | 32 | 0.78 (≈ 1.33 µg/mL) | 8 | 0.39 (≈ 0.664 µg/mL) | 2 | ≤0.05 | ≥32 | 4 | 0.20 (≈ 0.34 µg/mL) | 4 | 0.20 (≈ 0.34 µg/mL) | 9.8 ± 5.8 | 6.25 (≈ 10.6 µg/mL) | 64 | 1.56 (≈ 2.65 µg/mL) | 128 | 3 ± 2.3 | IC50 [4]: 5 µM; MIC (S. aureus VRSA): 1.56 µM (≈ 2.65 µg/mL); MIC-fold improvement vs. vancomycin (S. aureus VRSA): 64; MIC (E. faecalis VRE 29): 3.13 µM (≈ 5.33 µg/mL); MIC-fold improvement vs. vancomycin (E. faecalis VRE 29): 128; IC50 [5]: 1 ± 0.2 µM; MIC-fold improvement vs. vancomycin (MRSA KS6): 2; MIC (MRSA KS6): 0.39 µM (≈ 0.664 µg/mL)
CNC(CC(C)C)C(=O)NC1C(=O)NC(CC(N)=O)C(=O)NC2C(=O)NC3C(=O)NC(C(=O)NC(C(=O)NCC(=O)Nc4ccc(C(=O)c5ccccc5)cc4)c4cc(O)cc(O)c4-c4cc3ccc4O)C(O)c3ccc(c(Cl)c3)Oc3cc2cc(c3OC2OC(CO)C(O)C(O)C2OC2CC(C)(N)C(O)C(C)O2)Oc2ccc(cc2Cl)C1O (centres unmarked) [Vanc-88] | 4 | 0.20 (≈ 0.337 µg/mL) | 12.5 (≈ 21.1 µg/mL) | 32 | 0.39 (≈ 0.657 µg/mL) | 16 | 0.39 (≈ 0.657 µg/mL) | 2 | ≤0.05 | ≥32 | 8 | 0.10 (≈ 0.169 µg/mL) | 8 | 0.10 (≈ 0.169 µg/mL) | 98 ± 23 | 3.13 (≈ 5.28 µg/mL) | 128 | 1.56 (≈ 2.63 µg/mL) | 128 | 127 ± 32 | IC50 [4]: 86 µM; MIC (S. aureus VRSA): 0.78 µM (≈ 1.31 µg/mL); MIC-fold improvement vs. vancomycin (S. aureus VRSA): 128; MIC (E. faecalis VRE 29): 1.56 µM (≈ 2.63 µg/mL); MIC-fold improvement vs. vancomycin (E. faecalis VRE 29): 256; IC50 [5]: 32 ± 1 µM; MIC-fold improvement vs. vancomycin (MRSA KS6): 2; MIC (MRSA KS6): 0.39 µM (≈ 0.657 µg/mL)
